Data as given in patent publication US20220152144A1, “FOOD ADDITIVE INCLUDING MANNAN OLIGOSACCHARIDES TO ENHANCE ANIMAL PERFORMANCE AND METHOD OF USING THE SAME” (Vitech Bio-Chem Corporation, priority 2020, published 2022).

Columns and labels:
[1] = Growth performance of broiler chicks fed supplemented diets (Example 1); assay type: in vivo, broiler chicks (Cobb500); conditions: dose 45 ppm
Method: Materials and Methods. Broiler chicks: A total of 960 1-day old broiler chicks (Name of breed: Cobb500™) (8 trt×6 rep×20 birds/pen) were randomly allocated to 8 treatment groups. Treatment groups: Treatment 1 was a corn/soybean meal diet (PC: 45 ppm avilamycin); Treatment 2 was a PC+50 g/T Fish hydrolysate+MOS (80:20 ratio); Treatment 3 was a PC+100 g/T Fish hydrolysate+MOS (80:20); and treatment 4 was PC+200 g/T Fish hydrolysate+MOS (80:20).
(§1) The trial was conducted for 42 days. Body weight gain, feed intake, and FCR was measured at 14, 28, and 42 days. Cecal levels of E. coli, Salmonella, and lactobacillus were evaluated at 21 days.
Measurements: Individual broiler weights and feed intake was collected in order to calculate body weight and body weight gain, feed intake, and gain-to-feed ratio by phase.
One-way ANOVA and Duncan's multiple range test was used to separate the means. There is no difference found between treatments. The overall mortality during the 42 days period is 3.65% and it is non-treatment specific.

[2] = test system: E. coli; test: Bacterial counts in cecal samples of broiler chicks: E. coli; assay type: in vivo; conditions: 21 days, dose 45 ppm
Method: as §1

[3] = test system: Lactobacilli; test: Bacterial counts in cecal samples of broiler chicks: Lactobacilli; assay type: in vivo; conditions: 21 days, dose 45 ppm
Method: as §1

COC[C@H]1O[C@@H](OC2OC[C@@H]3O[C@]4(O[C@H]3[C@H]2OC(=O)C(C)C)O[C@H](C)[C@@](O)(C(C)=O)[C@@H]2OCO[C@H]24)[C@@H](OC)[C@@H](O)[C@@H]1O[C@@H]1O[C@H](C)[C@H](OC)[C@H](O[C@H]2C[C@@]3(C)OC4(C[C@@H](O)[C@H](O[C@H]5C[C@@H](O)[C@H](OC(=O)c6c(C)c(Cl)c(O)c(Cl)c6OC)[C@@H](C)O5)[C@@H](C)O4)O[C@@H]3[C@@H](C)O2)[C@H]1O (stereo partly shown) [Avilamycin, avilamycin]
body weight (BW) ([1]; Day 0-14): 442 g
body weight gain (BWG) ([1]; Day 0-14): 402 g
feed intake (FI) ([1]; Day 0-14): 583 g
food conversion ratio (FCR) ([1]; Day 0-14): 1.453
body weight (BW) ([1]; Day 0-28): 1,550 g
body weight gain (BWG) ([1]; Day 0-28): 1,510 g
feed intake (FI) ([1]; Day 0-28): 2,212 g
food conversion ratio (FCR) ([1]; Day 0-28): 1.472
body weight (BW) ([1]; Day 14-28): 1,550 g
body weight gain (BWG) ([1]; Day 14-28): 1,108 g
feed intake (FI) ([1]; Day 14-28): 1,628 g
food conversion ratio (FCR) ([1]; Day 14-28): 1.542
body weight (BW) ([1]; d 28-42): 2,784 g
body weight gain (BWG) ([1]; d 28-42): 1,235 g
feed intake (FI) ([1]; d 28-42): 2,601 g
food conversion ratio (FCR) ([1]; d 28-42): 2.123
body weight (BW) ([1]; overall 0-42 days): 2,784 g
body weight gain (BWG) ([1]; overall 0-42 days): 2,745 g
feed intake (FI) ([1]; overall 0-42 days): 4,813 g
food conversion ratio (FCR) ([1]; overall 0-42 days): 1.753
E. coli Counts [2]: 7.29a Log10 CFU/g
Lactobacilli Counts [3]: 7.21 Log10 CFU/g
